Results on five sequences are retold here after paper PMC9267059, “Selective Inhibition of Murine Cytomegalovirus Viral Gene Expression by the Antiviral Peptide TAT-I24” (International Journal of Molecular Sciences, 2022).

The test system of assay [1] is double-stranded DNA. To be noted: cited from earlier work. How it is done: To determine whether reduction of host-gene expression early after MCMV infection is related to the ability of the peptide to bind DNA, variants of TAT-I24 were generated with modifications of the TAT fusion partner (Figure 5A). The peptides were tested for their potency in inhibiting MCMV replication and their binding to DNA. […] Inhibition is independent of whether these are immediate-early, early or late genes, as they were all reduced to a similar extent, thereby excluding a specific effect of the peptide on a particular viral gene.

Assay [2] concerns MCMV viral gene expression. Put plainly: MCMV viral gene transcript levels by quantitative PCR relative to Gapdh. In kind it is cell-based, murine cytomegalovirus. To be noted: NIH/3T3, MCMV MOI 1, 2 h post-infection, four independent experiments. As to the method: NIH/3T3 fibroblasts were infected with MCMV expressing luciferase at low MOI (MOI 1) with the aid of centrifugal enhancement. Infections were performed either in the absence or presence of 10 µM TAT-I24. Cells were lysed after 30 min or 2-, 4-, 8- and 24-h post-infection. Total RNA was isolated and treated with DNase I to remove viral DNA before synthesis of the cDNA. Levels of viral transcripts were then analyzed by quantitative PCR and normalized to mRNA levels of the glyceraldehyde-3-phosphate dehydrogenase (Gapdh) housekeeping gene.
NIH/3T3 cells were seeded at a density of 8 × 10^4 cells/well of a 24-well plate and allowed to attach overnight. On the next day, MCMV strain delm157-luc rep was adsorbed to cells (MOI 1) in the absence or presence of 10 µM TAT-I24 and centrifuged twice at 800× g for 15 min. Cells were then kept at 37 °C and lysed after the indicated time-points.

The subject of assay [3] is host-cell transcripts in NIH/3T3 cells infected with MCMV. Put plainly: Host-cell transcript levels by quantitative PCR in MCMV-infected NIH/3T3 cells. In kind it is cell-based. To be noted: MCMV MOI 1, 2 h post-infection, four independent experiments.
For the next assay, the system named is MCMV. In words: Luciferase assay of MCMV replication (strain delm157-luc rep) in NIH/3T3 cells. In kind it is cell-based, murine cytomegalovirus. To be noted: NIH/3T3 cells infected with MCMV, 72 h post-infection, at the concentrations tested, three independent experiments in duplicates. As to the method: NIH/3T3 cells were seeded at a density of 2 × 10^4 cells/well of a 96-well plate and allowed to attach overnight. On the next day, cells were treated with various concentrations of peptides, or cidofovir either alone or in combination with increasing concentrations of TAT-I24 and infected with MCMV strain delm157-luc rep with centrifugal enhancement twice at 800× g for 15 min. After 72 h, cells were lysed and luciferase measured using luciferase assay system (Promega; Mannheim, Germany) using a GloMax Multi instrument (Promega; Mannheim, Germany).
Curve fittings and statistics were calculated using GraphPad Prism 8 (GraphPad Software, San Diego, CA, USA). Bliss synergy scores were calculated using SynergyFinder 2.0 software (https://synergyfinder.fimm.fi (accessed on 25 June 2022)).

The subject of assay [4] is double-stranded DNA. Put plainly: DNA binding assay (fluorescence reduction of SYBR Gold-stained plasmid DNA). To be noted: three independent experiments performed in duplicates. As to the method: Binding of peptides to double-stranded DNA was determined by reduction of fluorescence from SYBR® Gold-stained plasmid DNA as described previously.
The test system of assay [5] is mouse cytomegalovirus (CMV). To be noted: cited from earlier work.

Take CLAFYACFC [I24]: the “binding to DNA” value in the assay with double-stranded DNA [1] is on record as “also binds DNA”.
As for “GRKKRRCLAFYACFC [TAT-M26, six N-terminal amino-acid residues of the TAT peptide fused to I24]”, the “ie1 transcript levels, comparison of peptides” value in assay [2] is “significant inhibitory effect”. Besides, in assay [3], the “Ccl5 expression, comparison of peptides” value is “significant reduction”; the “Ccl7 expression, comparison of peptides” value is reported as “significant reduction”; the “Ifit1 expression, comparison of peptides” value is reported as “significant reduction”.
Turning to “RRRCLAFYACFC [TAT-M25, three amino-terminal arginine residues fused to I24]”, in the assay on MCMV, the “antiviral activity (luciferase reporter gene expression)” value is reported as “lack of antiviral activity”. Also, the “DNA binding (fluorescence reduction of SYBR Gold-stained plasmid DNA)” value in the assay with double-stranded DNA [4] is given as “reduced DNA binding”.
“RRRPPQCLAFYACFC [TAT-M24, six C-terminal residues of the TAT peptide fused to I24]”: the “antiviral activity (luciferase reporter gene expression)” value in the assay on MCMV was “lack of antiviral activity”. Further, the “DNA binding (fluorescence reduction of SYBR Gold-stained plasmid DNA)” value in the assay with double-stranded DNA [4] is on record as “reduced DNA binding”.
Turning to GRKKRRQRRRPPQ [TAT, reference compound], in assay [2], the “ie1 transcript levels, comparison of peptides” value is “partial reduction”. The “replication of mouse cytomegalovirus (MCMV)” value in assay [5] is “partial inhibitory effect”. The “DNA binding (fluorescence reduction of SYBR Gold-stained plasmid DNA)” value in the assay with double-stranded DNA [4] is reported as “partial fluorescence reduction”.
